What follows are molecules tested on soybean (Glycine max Merr.): GLXMA (assay: Test Example 1 pre-emergence herbicidal activity, GLXMA). Settings: Rate 63 g a.i./ha, visually observed 20th to 23rd day after application.
Assay type: in vivo
Procedure, shortened: (§1)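 Scoring was visual growth control (0 = untreated, 100 = complete kill) on days 20–23 post-application. Treatment came as a pre-emergence spray one day after sowing in upland soil, using wettable powder or emulsifiable concentrate diluted in 500 L/ha water at predetermined active-ingredient amounts.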

Compound	Pre-emergence Herbicidal Activity GLXMA (growth controlling degree) [%]
COc1c(Cl)cc(F)c(-c2nn(C)c(OC(F)F)c2Cl)c1N(C)C=O [Compound 1-6]	0

These molecules were tested on green foxtail (Setaria viridis L.): SETVI (assay: Test Example 1 pre-emergence herbicidal activity, SETVI). Settings: Rate 63 g a.i./ha, visually observed 20th to 23rd day after application.
Assay type: in vivo
Procedure, shortened: as §1

Compound	Pre-emergence Herbicidal Activity SETVI (growth controlling degree) [%]
COc1c(Cl)cc(F)c(-c2nn(C)c(OC(F)F)c2Cl)c1N(C)C=O [Compound 1-6]	50

Each molecule was assayed on crabgrass (Digitaria sanguinalis L.): DIGSA (assay: Test Example 1 pre-emergence herbicidal activity, DIGSA). Settings: Rate 63 g a.i./ha, visually observed 20th to 23rd day after application.
Assay type: in vivo
Procedure, shortened: as §1

Compound	Pre-emergence Herbicidal Activity DIGSP (growth controlling degree) [%]
COc1c(Cl)cc(F)c(-c2nn(C)c(OC(F)F)c2Cl)c1N(C)C=O [Compound 1-6]	100

These molecules were tested on barnyardgrass (Echinochloa crus-galli L.): ECHCG (assay: Test Example 1 pre-emergence herbicidal activity, ECHCG). Settings: Rate 63 g a.i./ha, visually observed 20th to 23rd day after application.
Assay type: in vivo
Procedure, shortened: as §1

Compound	Pre-emergence Herbicidal Activity ECHCG (growth controlling degree) [%]
COc1c(Cl)cc(F)c(-c2nn(C)c(OC(F)F)c2Cl)c1N(C)C=O [Compound 1-6]	20

Each molecule was assayed on velvetleaf (Abutilon theophrasti), ABUTH (assay: Test Example 2 post-emergence (foliage treatment) herbicidal activity, ABUTH). Settings: 63 g a.i./ha.
Assay type: in vivo
Procedure, shortened: (§2)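 A small sprayer delivered the diluted WP or EC formulation (500 L/ha water, 0.1% v/v spreader) over emerged seedlings in upland soil pots. Damage relative to untreated plants was graded visually from 0 to 100% three weeks or so later (days 20-23).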

Compound	growth controlling degree, ABUTH [%]
COc1c(Cl)cc(F)c(-c2nn(C)c(OC(F)F)c2Cl)c1N(C)C=O [Compound 1-6]	100

Each molecule was assayed on rice (Oryza sativa L.): ORYSA (assay: Test Example 1 pre-emergence herbicidal activity, ORYSA). Settings: Rate 63 g a.i./ha, visually observed 20th to 23rd day after application.
Assay type: in vivo
Procedure, shortened: as §1

Compound	Pre-emergence Herbicidal Activity ORYSA (growth controlling degree) [%]
COc1c(Cl)cc(F)c(-c2nn(C)c(OC(F)F)c2Cl)c1N(C)C=O [Compound 1-6]	20

What follows are molecules tested on redroot pigweed (Amaranthus retroflexus L.), AMARE (assay: Test Example 2 post-emergence (foliage treatment) herbicidal activity, AMARE). Settings: 63 g a.i./ha.
Assay type: in vivo
Procedure, shortened: (§3)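 Visual rating of growth control, from 0 (untreated-like) to 100 (complete kill), was done 20–23 days after post-emergence spraying. Wettable powder or emulsifiable concentrate was diluted to 500 L/ha with 0.1% (v/v) spreader. Leaf stages at application were 1.1-2.1 (ECHCG), 1.0-2.0 (DIGSA), 0.1-1.5 (AMARE) and 1.0-2 (ORYSA).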

Compound	growth controlling degree, AMARE [%]
COc1c(Cl)cc(F)c(-c2nn(C)c(OC(F)F)c2Cl)c1N(C)C=O [Compound 1-6]	100

The molecules below were run on corn (Zea mays L.), ZEAMX (assay: Test Example 2 post-emergence (foliage treatment) herbicidal activity, ZEAMX). Settings: 63 g a.i./ha.
Assay type: in vivo
Procedure, shortened: as §2

Compound	growth controlling degree, ZEAMX [%]
COc1c(Cl)cc(F)c(-c2nn(C)c(OC(F)F)c2Cl)c1N(C)C=O [Compound 1-6]	30

These molecules were tested on prickly sida (Sida spinosa L.): SEDSP (assay: Test Example 1 pre-emergence herbicidal activity, SIDSP). Settings: Rate 63 g a.i./ha, visually observed 20th to 23rd day after application.
Assay type: in vivo
Procedure, shortened: as §1

Compound	Pre-emergence Herbicidal Activity SIDSP (growth controlling degree) [%]
COc1c(Cl)cc(F)c(-c2nn(C)c(OC(F)F)c2Cl)c1N(C)C=O [Compound 1-6]	40

The molecules below were run on crabgrass (Digitaria sanguinalis L.), DIGSA (assay: Test Example 2 post-emergence (foliage treatment) herbicidal activity, DIGSA). Settings: 63 g a.i./ha.
Assay type: in vivo
Procedure, shortened: as §3

Compound	growth controlling degree, DIGSP [%]
COc1c(Cl)cc(F)c(-c2nn(C)c(OC(F)F)c2Cl)c1N(C)C=O [Compound 1-6]	70

The molecules below were run on barnyardgrass (Echinochloa crus-galli L.), ECHCG (assay: Test Example 2 post-emergence (foliage treatment) herbicidal activity, ECHCG). Settings: 63 g a.i./ha.
Assay type: in vivo
Procedure, shortened: as §3

Compound	growth controlling degree, ECHCO [%]
COc1c(Cl)cc(F)c(-c2nn(C)c(OC(F)F)c2Cl)c1N(C)C=O [Compound 1-6]	60

What follows are molecules tested on green foxtail (Setaria viridis L.), SETVI (assay: Test Example 2 post-emergence (foliage treatment) herbicidal activity, SETVI). Settings: 63 g a.i./ha.
Assay type: in vivo
Procedure, shortened: as §2

Compound	growth controlling degree, SETVI [%]
COc1c(Cl)cc(F)c(-c2nn(C)c(OC(F)F)c2Cl)c1N(C)C=O [Compound 1-6]	100

The molecules below were run on wheat (Triticum aestivum L.): TRZAX (assay: Test Example 1 pre-emergence herbicidal activity, TRZAX). Settings: Rate 63 g a.i./ha, visually observed 20th to 23rd day after application.
Assay type: in vivo
Procedure, shortened: as §1

Compound	Pre-emergence Herbicidal Activity TRZAX (growth controlling degree) [%]
COc1c(Cl)cc(F)c(-c2nn(C)c(OC(F)F)c2Cl)c1N(C)C=O [Compound 1-6]	20

What follows are molecules tested on redroot pigweed (Amaranthus retroflexus L.): AMARE (assay: Test Example 1 pre-emergence herbicidal activity, AMARE). Settings: Rate 63 g a.i./ha, visually observed 20th to 23rd day after application.
Assay type: in vivo
Procedure, shortened: as §1

Compound	Pre-emergence Herbicidal Activity AMARE (growth controlling degree) [%]
COc1c(Cl)cc(F)c(-c2nn(C)c(OC(F)F)c2Cl)c1N(C)C=O [Compound 1-6]	100

The molecules below were run on common cocklebur (Xanthium strumarium L.), XANST (assay: Test Example 2 post-emergence (foliage treatment) herbicidal activity, XANST). Settings: 63 g a.i./ha.
Assay type: in vivo
From the text: Upland field soil was put into a 1/170,000 ha pot, and seeds of various plants were sown. Then, when the plants reached predetermined leaf stages {1. barnyardgrass (Echinochloa crus-galli L.), ECHCG: 1.1-2.1 leaf stage, 2. crabgrass (Digitaria sanguinalis L.), DIGSA: 1.0-2.0 leaf stage, 3. green foxtail (Setaria viridis L.), SETVI: 1.0-2.2 leaf stage, 4. redroot pigweed (Amaranthus retroflexus L.), AMARE: 0.1-1.5 leaf stage, 5. prickly sida (Sida spinosa L.), SIDSP: 0.1-0.6 leaf stage, 6. velvetleaf (Abutilon theophrasti), ABUTH: 0.1-0.6 leaf stage, 7. common cocklebur (Xanthium strumarium L.), XANST: 0.1 leaf stage, 8. rice (Oryza sativa L.), ORYSA; 1.0-2 leaf stage, 9. wheat (Triticum aestivum L.), TRZAX: 2.3-3.5 leaf stage, 10. corn (Zea mays L.), ZEAMXN 2.1-2.6 leaf stage, 11. soybean (Glycine max Merr.), GLXMA: primary leaf stage}, a wettable powder or emulsifiable concentrate having the compound of the present invention formulated in accordance with a usual formulation method, was weighed so that the active ingredient would be a predetermined amount, and diluted with water in an amount of 500 L/ha. To the diluted solution, 0.1% (v/v) of an agricultural spreader was added. The herbicide adjusted was applied by a small size sprayer for foliage treatment. On the 20th to 23rd day after the application of the herbicide, the growth of the respective plants was visually observed, and the herbicidal effects were evaluated by growth controlling degrees (%) ranging from 0 (equivalent to the untreated control) to 100 (complete kill), whereby the results shown in Table 5, were obtained. Compound Nos. in Table 5 correspond to Compound Nos. in Table 1 and 2 given hereinbefore.

Compound	growth controlling degree, XANST [%]
COc1c(Cl)cc(F)c(-c2nn(C)c(OC(F)F)c2Cl)c1N(C)C=O [Compound 1-6]	95

Reference: patent publication US20050245399A1, “Pyrazole derivatives as herbicidal compositions containing them” (ISHIHARA SANGYO KAISHA, LTD., priority 2004, published 2005)
